Measurements published in ChEMBL document CHEMBL4507263, “Data for DCP probe BAY-474” (2021).

Experiments:
[1] = target: Activated CDC42 kinase 1 (Homo sapiens) (UniProt Q07912); test: ACK1 (h) Millipore kinase activity assay; conditions: Compound concentration 1.0 uM
[2] = target: RAF proto-oncogene serine/threonine-protein kinase (Homo sapiens) (UniProt P04049); test: c-RAF (h) Millipore kinase activity assay; conditions: Compound concentration 1.0 uM
[3] = target: Tyrosine-protein kinase Mer (Homo sapiens) (UniProt Q12866); test: Mer (h) Millipore kinase activity assay; conditions: Compound concentration 1.0 uM
[4] = target: Myosin light chain kinase (Homo sapiens) (UniProt Q32MK0); test: MLCK (h) Millipore kinase activity assay; conditions: Compound concentration 1.0 uM
[5] = target: Serine/threonine-protein kinase Nek6 (Homo sapiens) (UniProt Q9HC98); test: NEK6 (h) Millipore kinase activity assay; conditions: Compound concentration 1.0 uM
[6] = target: Serine/threonine-protein kinase PAK 4 (Homo sapiens) (UniProt O96013); test: PAK4 (h) Millipore kinase activity assay; conditions: Compound concentration 1.0 uM
[7] = target: Serine/threonine-protein kinase PAK 5 (Homo sapiens) (UniProt Q9P286); test: PAK5 (h) Millipore kinase activity assay; conditions: Compound concentration 1.0 uM
[8] = target: Serine/threonine-protein kinase pim-2 (Homo sapiens) (UniProt Q9P1W9); test: Pim-2 (h) Millipore kinase activity assay; conditions: Compound concentration 1.0 uM
[9] = target: Protein kinase C beta type (Homo sapiens) (UniProt P05771); test: PKCbetaI (h) Millipore kinase activity assay; conditions: Compound concentration 1.0 uM
[10] = target: Rho-associated protein kinase 1 (Homo sapiens) (UniProt Q13464); test: ROCK-I (h) Millipore kinase activity assay; conditions: Compound concentration 1.0 uM
[11] = target: Serine/threonine-protein kinase TAO3 (Homo sapiens) (UniProt Q9H2K8); test: TAO3 (h) Millipore kinase activity assay; conditions: Compound concentration 1.0 uM
[12] = target: BDNF/NT-3 growth factors receptor (Homo sapiens) (UniProt Q16620); test: TrkB (h) Millipore kinase activity assay; conditions: Compound concentration 1.0 uM
[13] = target: Sodium-dependent serotonin transporter (Homo sapiens) (UniProt P31645); conditions: Compound concentration 10.0 uM
[14] = target: Beta-2 adrenergic receptor (Homo sapiens) (UniProt P07550); conditions: Compound concentration 10.0 uM
[15] = target: D(3) dopamine receptor (Homo sapiens) (UniProt P35462); conditions: Compound concentration 10.0 uM
[16] = tested on: Tyrosine-protein kinase ABL1 (Homo sapiens), P00519 [F317I]; conditions: Compound concentration 1000.0 nM
[17] = target: Mitotic checkpoint serine/threonine-protein kinase BUB1 (Homo sapiens) (UniProt O43683); conditions: Compound concentration 1000.0 nM
[18] = target: Casein kinase II subunit alpha (Homo sapiens) (UniProt P68400); conditions: Compound concentration 1000.0 nM
[19] = target: Megakaryocyte-associated tyrosine-protein kinase (Homo sapiens) (UniProt P42679); conditions: Compound concentration 1000.0 nM
[20] = target: Serine/threonine-protein kinase DCLK2 (Homo sapiens) (UniProt Q8N568); conditions: Compound concentration 1000.0 nM
[21] = target: Serine/threonine-protein kinase DCLK3 (Homo sapiens) (UniProt Q9C098); conditions: Compound concentration 1000.0 nM
[22] = target: Ephrin type-A receptor 6 (Homo sapiens) (UniProt Q9UF33); conditions: Compound concentration 1000.0 nM
[23] = target: Ephrin type-A receptor 8 (Homo sapiens) (UniProt P29322); conditions: Compound concentration 1000.0 nM
[24] = target: Ephrin type-B receptor 4 (Homo sapiens) (UniProt P54760); conditions: Compound concentration 1000.0 nM
[25] = target: Tyrosine-protein kinase FRK (Homo sapiens) (UniProt P42685); conditions: Compound concentration 1000.0 nM
[26] = target: Tyrosine-protein kinase Lyn (Homo sapiens) (UniProt P07948); conditions: Compound concentration 1000.0 nM
[27] = target: Dual specificity mitogen-activated protein kinase kinase 1 (Homo sapiens) (UniProt Q02750); conditions: Compound concentration 1000.0 nM
[28] = target: Serine/threonine-protein kinase MRCK alpha (Homo sapiens) (UniProt Q5VT25); conditions: Compound concentration 1000.0 nM
[29] = target: Serine/threonine-protein kinase MRCK beta (Homo sapiens) (UniProt Q9Y5S2); conditions: Compound concentration 1000.0 nM
[30] = target: Cyclin-dependent kinase 14 (Homo sapiens) (UniProt O94921); conditions: Compound concentration 1000.0 nM
[31] = tested on: Phosphatidylinositol 4,5-bisphosphate 3-kinase catalytic subunit alpha isoform (Homo sapiens), P42336 [E545A]; conditions: Compound concentration 1000.0 nM
[32] = target: Serine/threonine-protein kinase PLK1 (Homo sapiens) (UniProt P53350); conditions: Compound concentration 1000.0 nM
[33] = target: Protein-tyrosine kinase 2-beta (Homo sapiens) (UniProt Q14289); conditions: Compound concentration 1000.0 nM
[34] = target: Serine/threonine-protein kinase RIO1 (Homo sapiens) (UniProt Q9BRS2); conditions: Compound concentration 1000.0 nM
[35] = target: Uncharacterized serine/threonine-protein kinase SBK3 (Homo sapiens) (UniProt P0C264); conditions: Compound concentration 1000.0 nM
[36] = target: Serine/threonine-protein kinase Sgk3 (Homo sapiens) (UniProt Q96BR1); conditions: Compound concentration 1000.0 nM
[37] = target: NUAK family SNF1-like kinase 2 (Homo sapiens) (UniProt Q9H093); conditions: Compound concentration 1000.0 nM
[38] = target: Wee1-like protein kinase 2 (Homo sapiens) (UniProt P0C1S8); conditions: Compound concentration 1000.0 nM

Sequence of Megakaryocyte-associated tyrosine-protein kinase (Homo sapiens) (P42679 whole entry): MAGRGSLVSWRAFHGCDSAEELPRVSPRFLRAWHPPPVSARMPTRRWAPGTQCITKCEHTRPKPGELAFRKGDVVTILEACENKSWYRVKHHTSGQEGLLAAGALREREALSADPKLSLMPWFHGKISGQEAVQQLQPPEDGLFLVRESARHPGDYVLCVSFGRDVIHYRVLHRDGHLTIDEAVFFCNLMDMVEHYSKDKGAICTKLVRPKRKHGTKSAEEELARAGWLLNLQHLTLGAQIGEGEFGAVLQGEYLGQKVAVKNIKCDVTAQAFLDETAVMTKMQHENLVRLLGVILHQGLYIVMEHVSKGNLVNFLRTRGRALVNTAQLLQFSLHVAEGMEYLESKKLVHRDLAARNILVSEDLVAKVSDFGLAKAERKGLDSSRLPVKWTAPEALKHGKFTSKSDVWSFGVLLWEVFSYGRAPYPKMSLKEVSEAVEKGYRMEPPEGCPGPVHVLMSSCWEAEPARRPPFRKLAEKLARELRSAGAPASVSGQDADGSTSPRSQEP
Sequence of Phosphatidylinositol 4,5-bisphosphate 3-kinase catalytic subunit alpha isoform (Homo sapiens), P42336 [E545A] (P42336 whole entry E545A, canonical isoform): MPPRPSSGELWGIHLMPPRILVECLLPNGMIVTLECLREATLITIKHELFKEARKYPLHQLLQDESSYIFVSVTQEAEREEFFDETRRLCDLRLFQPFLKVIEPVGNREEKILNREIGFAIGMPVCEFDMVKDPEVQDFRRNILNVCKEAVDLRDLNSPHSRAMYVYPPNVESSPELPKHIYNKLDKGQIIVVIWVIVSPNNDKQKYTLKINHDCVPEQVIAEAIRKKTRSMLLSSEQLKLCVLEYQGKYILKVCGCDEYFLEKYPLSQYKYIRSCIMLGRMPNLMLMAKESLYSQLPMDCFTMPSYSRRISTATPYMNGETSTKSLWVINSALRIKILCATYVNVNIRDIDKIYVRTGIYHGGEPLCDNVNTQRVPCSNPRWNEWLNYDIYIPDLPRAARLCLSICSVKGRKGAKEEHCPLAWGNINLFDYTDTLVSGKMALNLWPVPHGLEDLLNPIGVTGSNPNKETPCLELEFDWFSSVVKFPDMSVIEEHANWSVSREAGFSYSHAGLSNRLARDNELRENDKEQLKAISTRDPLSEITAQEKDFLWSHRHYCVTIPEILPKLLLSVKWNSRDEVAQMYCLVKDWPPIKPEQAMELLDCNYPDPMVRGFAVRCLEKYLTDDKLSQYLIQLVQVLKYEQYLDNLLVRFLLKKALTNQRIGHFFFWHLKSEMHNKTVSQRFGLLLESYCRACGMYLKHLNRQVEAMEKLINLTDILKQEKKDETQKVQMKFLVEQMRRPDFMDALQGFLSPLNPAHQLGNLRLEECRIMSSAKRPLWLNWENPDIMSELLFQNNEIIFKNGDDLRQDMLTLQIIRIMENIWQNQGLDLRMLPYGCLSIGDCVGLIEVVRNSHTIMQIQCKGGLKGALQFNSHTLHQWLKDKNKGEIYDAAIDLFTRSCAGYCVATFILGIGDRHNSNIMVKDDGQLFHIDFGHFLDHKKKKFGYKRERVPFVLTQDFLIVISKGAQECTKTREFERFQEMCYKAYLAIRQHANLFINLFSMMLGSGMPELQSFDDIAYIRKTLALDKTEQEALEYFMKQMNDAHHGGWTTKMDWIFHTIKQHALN
Sequence of D(3) dopamine receptor (Homo sapiens) (P35462 whole entry): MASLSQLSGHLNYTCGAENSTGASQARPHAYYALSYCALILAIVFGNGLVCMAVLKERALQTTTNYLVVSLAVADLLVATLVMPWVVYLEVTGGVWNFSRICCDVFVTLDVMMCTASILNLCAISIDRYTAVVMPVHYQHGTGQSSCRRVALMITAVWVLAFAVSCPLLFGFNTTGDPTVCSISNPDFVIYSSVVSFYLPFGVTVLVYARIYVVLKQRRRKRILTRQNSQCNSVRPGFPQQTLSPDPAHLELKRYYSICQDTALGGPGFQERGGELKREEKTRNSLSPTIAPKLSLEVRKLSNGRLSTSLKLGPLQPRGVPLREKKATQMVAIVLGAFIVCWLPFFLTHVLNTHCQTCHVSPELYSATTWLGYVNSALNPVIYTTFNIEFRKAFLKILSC
Sequence of Ephrin type-A receptor 6 (Homo sapiens) (Q9UF33 whole entry): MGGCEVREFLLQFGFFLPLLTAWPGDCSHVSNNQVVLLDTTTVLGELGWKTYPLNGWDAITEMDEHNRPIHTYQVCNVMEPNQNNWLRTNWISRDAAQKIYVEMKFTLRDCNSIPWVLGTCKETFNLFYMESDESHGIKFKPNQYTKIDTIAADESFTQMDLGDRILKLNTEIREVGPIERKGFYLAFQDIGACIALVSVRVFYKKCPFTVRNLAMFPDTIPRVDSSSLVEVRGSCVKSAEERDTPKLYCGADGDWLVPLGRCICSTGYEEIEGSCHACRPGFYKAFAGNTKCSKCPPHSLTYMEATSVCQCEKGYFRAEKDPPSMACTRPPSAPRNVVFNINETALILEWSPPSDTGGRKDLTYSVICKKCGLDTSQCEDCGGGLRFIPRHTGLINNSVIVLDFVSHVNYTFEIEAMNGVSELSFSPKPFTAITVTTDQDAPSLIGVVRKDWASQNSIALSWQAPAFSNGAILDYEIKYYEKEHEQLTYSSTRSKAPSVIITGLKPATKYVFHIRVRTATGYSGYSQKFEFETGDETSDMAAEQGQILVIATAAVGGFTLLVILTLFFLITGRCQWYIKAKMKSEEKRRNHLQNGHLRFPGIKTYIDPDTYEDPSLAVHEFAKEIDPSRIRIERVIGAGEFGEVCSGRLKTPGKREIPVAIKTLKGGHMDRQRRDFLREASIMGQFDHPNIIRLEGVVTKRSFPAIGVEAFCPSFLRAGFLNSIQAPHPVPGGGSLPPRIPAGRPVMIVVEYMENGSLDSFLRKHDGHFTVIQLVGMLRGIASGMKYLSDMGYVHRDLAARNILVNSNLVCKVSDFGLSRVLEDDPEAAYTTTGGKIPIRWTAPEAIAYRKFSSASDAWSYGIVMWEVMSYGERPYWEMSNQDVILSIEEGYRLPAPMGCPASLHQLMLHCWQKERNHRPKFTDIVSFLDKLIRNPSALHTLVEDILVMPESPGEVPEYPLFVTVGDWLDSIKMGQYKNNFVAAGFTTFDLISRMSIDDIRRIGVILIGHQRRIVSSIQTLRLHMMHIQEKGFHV
Sequence of Protein kinase C beta type (Homo sapiens) (P05771 2-671 limits assumed): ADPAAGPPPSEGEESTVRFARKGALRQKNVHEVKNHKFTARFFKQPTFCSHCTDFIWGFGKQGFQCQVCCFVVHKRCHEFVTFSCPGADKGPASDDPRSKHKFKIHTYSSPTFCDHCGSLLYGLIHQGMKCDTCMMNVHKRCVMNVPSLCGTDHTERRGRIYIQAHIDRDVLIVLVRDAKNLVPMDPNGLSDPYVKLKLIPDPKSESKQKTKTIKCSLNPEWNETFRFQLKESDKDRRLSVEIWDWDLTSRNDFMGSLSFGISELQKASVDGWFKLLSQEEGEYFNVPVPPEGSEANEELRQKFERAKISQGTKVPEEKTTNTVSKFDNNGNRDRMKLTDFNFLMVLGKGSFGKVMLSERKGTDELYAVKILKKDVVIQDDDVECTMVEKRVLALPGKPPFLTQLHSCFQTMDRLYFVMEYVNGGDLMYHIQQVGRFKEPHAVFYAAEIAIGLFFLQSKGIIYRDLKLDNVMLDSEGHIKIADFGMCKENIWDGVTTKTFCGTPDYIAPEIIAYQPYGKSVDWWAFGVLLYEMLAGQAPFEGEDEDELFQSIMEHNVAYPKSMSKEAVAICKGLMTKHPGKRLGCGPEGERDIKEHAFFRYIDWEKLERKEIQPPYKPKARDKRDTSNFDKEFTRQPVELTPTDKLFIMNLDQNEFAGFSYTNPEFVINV
Sequence of Tyrosine-protein kinase Mer (Homo sapiens) (Q12866 whole entry): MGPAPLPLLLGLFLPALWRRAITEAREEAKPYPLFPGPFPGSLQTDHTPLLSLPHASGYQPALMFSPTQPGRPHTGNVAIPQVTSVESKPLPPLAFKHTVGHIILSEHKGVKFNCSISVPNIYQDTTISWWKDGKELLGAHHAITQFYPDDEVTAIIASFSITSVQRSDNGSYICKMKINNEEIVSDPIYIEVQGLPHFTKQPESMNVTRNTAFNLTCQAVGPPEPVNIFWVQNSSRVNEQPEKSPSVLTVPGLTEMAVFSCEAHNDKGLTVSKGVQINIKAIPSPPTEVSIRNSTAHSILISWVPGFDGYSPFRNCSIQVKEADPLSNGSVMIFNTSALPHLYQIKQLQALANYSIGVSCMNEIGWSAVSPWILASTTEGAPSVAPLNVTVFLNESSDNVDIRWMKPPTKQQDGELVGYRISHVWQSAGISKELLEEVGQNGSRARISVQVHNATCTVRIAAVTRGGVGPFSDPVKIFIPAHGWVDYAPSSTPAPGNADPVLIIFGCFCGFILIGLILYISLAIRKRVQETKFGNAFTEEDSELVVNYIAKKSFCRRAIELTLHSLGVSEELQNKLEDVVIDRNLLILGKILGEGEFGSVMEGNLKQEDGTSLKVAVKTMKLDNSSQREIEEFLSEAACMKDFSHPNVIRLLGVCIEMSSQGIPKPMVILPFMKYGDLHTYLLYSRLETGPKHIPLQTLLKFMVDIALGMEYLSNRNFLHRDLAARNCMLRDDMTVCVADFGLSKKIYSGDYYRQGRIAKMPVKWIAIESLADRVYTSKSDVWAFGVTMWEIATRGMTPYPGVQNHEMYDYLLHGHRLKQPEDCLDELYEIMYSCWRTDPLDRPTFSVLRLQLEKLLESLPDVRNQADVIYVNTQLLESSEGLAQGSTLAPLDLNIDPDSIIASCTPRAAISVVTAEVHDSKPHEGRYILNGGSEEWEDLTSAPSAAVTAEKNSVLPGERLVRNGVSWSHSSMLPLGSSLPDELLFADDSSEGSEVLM
Sequence of Serine/threonine-protein kinase Nek6 (Homo sapiens) (Q9HC98 whole entry): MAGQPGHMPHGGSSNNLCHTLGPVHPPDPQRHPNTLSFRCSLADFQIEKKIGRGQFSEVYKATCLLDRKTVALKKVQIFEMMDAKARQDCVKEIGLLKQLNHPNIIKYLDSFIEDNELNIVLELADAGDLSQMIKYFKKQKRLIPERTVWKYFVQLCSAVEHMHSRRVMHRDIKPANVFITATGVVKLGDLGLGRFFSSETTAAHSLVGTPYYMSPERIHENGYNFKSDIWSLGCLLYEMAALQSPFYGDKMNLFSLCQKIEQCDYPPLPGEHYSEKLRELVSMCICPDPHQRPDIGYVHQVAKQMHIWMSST

CC1=C(C#N)C(c2ccc3[nH]nc(C)c3c2)C(C#N)=C(C)N1 [BAY-474]
inactive: inhibition [1] 2% | inhibition [2] 1% | inhibition [3] 12% | inhibition [4] 9% | inhibition [5] -10% | inhibition [6] 3% | inhibition [7] -4% | inhibition [8] -3% | inhibition [9] -4% | inhibition [10] 1% | inhibition [11] -8% | inhibition [12] -2% | inhibition [13] -3.41% | inhibition [14] 4% | inhibition [15] 12%

CC1=C(C#N)[C@@H](c2ccc3[nH]nc(C)c3c2)C(C#N)=C(c2ccc(Cl)cc2)N1 [BAY-827]
inactive: residual activity [16] 100% | residual activity [17] 100% | residual activity [18] 100% | residual activity [19] 100% | residual activity [20] 97.9% | residual activity [21] 71.3% | residual activity [22] 100% | residual activity [23] 100% | residual activity [24] 100% | residual activity [25] 100% | residual activity [26] 96.8% | residual activity [27] 100% | residual activity [28] 82.2% | residual activity [29] 100% | residual activity [30] 94.4% | residual activity [31] 75.4% | residual activity [32] 100% | residual activity [33] 100% | residual activity [34] 100% | residual activity [35] 100% | residual activity [36] 84.5% | residual activity [37] 100% | residual activity [38] 100%
